Measurements from patent publication US9944668B2, “Manganese-based magnetic resonance contrast agents” (The General Hospital Corporation, priority 2013, dated 2018).
One block for each compound: values may come before it.

Columns and labels:
Assay type in all cases: physicochemical
[1] = T1 relaxivity (r1) measurement at 1.4 T, 37° C., TRIS buffer pH 7.4; details: for r1 (relaxivity): pH 7.4, 37° C., 1.4 Tesla, TRIS buffer
Experimental: (§1) Liquid chromatography-electrospray mass spectrometry (LC-MS) was performed using an Agilent 1100 Series apparatus with an LC/MSD trap and Daly conversion dynode detector with UV detection at 220, 254 and 280 nm. The methods used on this system are as follows: (a) Luna C18 column (100×2 mm); eluent A: H2O/0.1% formic acid, B: MeCN/0.1% formic acid; gradient: 5% B to 95% B over 9 minutes; flow rate 0.8 mL/min (used for characterization of organic compounds), and (b) Kromasil C18 column (250×4.6 mm); eluent C: 95% MeCN/5% 10 mM ammonium acetate, D: 10 mM ammonium acetate; gradient 5% C to 8% C over 14 minutes; flow rate 0.8 ml/min (used for characterization of manganese complexes). Reversed-phase semipreparative purification was performed on a Rainin Dynamax HPLC system with UV detection at 254 nm using a Polaris C18 column. The method used for purification is as follows: The mobile phase A was 50 mM ammonium acetate buffer, pH 6.5 and mobile phase B was a mixture of 5% 50 mM ammonium acetate buffer, pH 6.5/95% MeCN. Starting from 5% B, the fraction of B increased to 8% over 23 minutes. The column was washed with 100% B for 2 minutes and then ramped to 5% B. The system was re-equilibrated at 5% B for 3 minutes. Relaxivity measurements were performed on a Bruker mq60 Minispec at 1.4 T and 37° C. Manganese concentrations were determined using an Agilent 7500a ICP-MS system. All samples were diluted with 0.1% Triton X-100 in 5% nitric acid containing 20 ppb of Lu (as internal standard). The ratio of Mn (54.94)/Lu(174.97) was used to quantify the manganese concentration. A linear calibration curve ranging from 0.1 ppb to 200 ppb was generated daily for the quantification. UV-Vis spectra were recorded on a SpectraMax M2 spectrophotometer using quartz cuvette with a 1 cm path length. Cyclic voltammetry of Mn^IIHBET, Mn^IIEDTA and Mn^IIIHBET was recorded using a Nuvant EZstat pro potentiostat in TRIS buffer (pH=7.4), containing 0.5M KNO3 as supporting electrolyte, at 100 mVs-1 scan rate. Glassy carbon was used as the working electrode, Ag/AgCl served as the reference electrode and Pt wire was used as the auxiliary electrode. The K4FeCN6/K3FeCN6 couple was used as the internal standard.
T1 was measured with an inversion recovery pulse sequence taking 10 inversion times. Relaxivity was determined from the slope of a plot of 1/T1 vs. concentration of in TRIS buffer, pH=7.4 at 37° C. The concentration of manganese in each stock solution was determined using ICP-MS.

[2] = Cyclic voltammetry of manganese complexes (Mn(III)/Mn(II) redox couple); details: for Half-cell potential: pH 7.4, vs. normal hydrogen electrode (NHE)
Experimental: as §1

[3] = T1 relaxivity measurement by MR imaging at 4.7 T; details: room temperature, pH 7.4 TRIS buffer
Experimental: MR imaging was performed using a Bruker Biospec 4.7 T system. Three samples (˜500 μL) were placed in a homemade sample holder and imaged using a volume coil. Acquisition matrix=64×256 for 0.234×0.312 mm^2 in-plane resolution; slice thickness=5 mm. T1-weighted images were obtained with a fast low angle shot (FLASH) gradient echo sequence: TR/TE/FA=20/5.44/40° with 8 averages. T1 was determined using a 2D rapid acquisition refocused echo (RARE) inversion recovery sequence: TR=3200 ms, TE=9.7 ms. Inversion times (TI): 5, 45, 85, 165, 325, 645, 1285, 1925 and 3205 ms. T1 was obtained from a nonlinear least square fit of the signal intensity (SI(t)) vs. TI curve where T1, SI(0) and a are adjustable parameters, equation S2. SI(t)=SI(0)[1−α,e^TI/T1] (eq. S2)

[4] = Kinetics of reduction of Mn^III-HBET by glutathione; details: 37° C., pH 7.4; first-order in both [GSH] and [Mn^III-HBET]
Experimental: This series of kinetic experiments were conducted at 37° C. (pH 7.4) to determine the empirical rate law for the reduction of Mn^III-HBET by glutathione. […] This feature was used to monitor the reduction of […] over time. Initial reaction rates were measured at a three different glutathione concentrations (5 mM, 10 mM and 20 mM). Additionally, for each glutathione concentration, the reaction was performed at four different initial concentrations of Mn^III-HBET (0.3 mM, 0.4 mM, 0.5 mM and 0.6 mM). By using a large excess of glutathione in these experiments, we found the reaction behaved pseudo first-order with respect to the […] complex as expressed in equation S1. [Mn^IIIHBET]t=[Mn^IIIHBET]o·e^−k^obs^·t (eq. S1)
Here, the observed rate constant (kobs) is simply the product of the actual rate constant (k) and [GSH], t is time, and the subscripts ‘t’ and ‘o’ refer to the concentration at time ‘t’ or the initial concentration, respectively. […] In this way, the slope of each line is equal to −k·[GSH] and the intercept is In[MnIII-HBET]o. Based on these experiments, we determined that the reaction was first-order in both [GSH] and [Mn^III-HBET] with an overall second-order rate constant of (3.8±0.3)×10^−1M^−1s^−1.

[5] = Relaxivity (r1) at different field strengths in HEPES buffer; details: 37° C., pH 7.4 HEPES buffer
Experimental: The relaxivities of the compounds for Formulas (XI) and (XII) were determined at different field strengths at 37° C. in pH 7.4 HEPES buffer. The relaxivity was obtained from the slope of a plot of 1/T1 vs. [Mn] for different Mn concentrations. Since Formula (XI) contains 6 Mn per molecule, the ionic (per Mn) and molecular (per molecule) relaxivities are given below.

r1 (relaxivity) [1]: 3.26 mM⁻¹ s⁻¹
Compound: O=C([O-])CN(CC(=O)[O-])C1CCCCC1N(CC(=O)[O-])Cc1ccccc1[O-].[Mn+2].[Na+].[Na+] (racemic) [Compound 20, Na2[Mn^IIcycHBET]]

r1 (relaxivity) [1]: 2.76 mM⁻¹ s⁻¹
Half-cell potential [2]: 379 mV
Compound: O=C([O-])CN(CCN(CC(=O)[O-])Cc1ccccc1[O-])CC(=O)[O-].[Mn+2].[Na+].[Na+] [Compound 4, Na2[Mn^IIHBET]]

fold higher relaxivity of reduced form vs oxidized form [3]: 3.3 fold
r1 (relaxivity) [1]: 1.05 mM⁻¹ s⁻¹
Compound: O=C([O-])CN(CCN(CC(=O)[O-])Cc1ccccc1[O-])CC(=O)[O-].[Mn+3].[Na+] [Compound 5, Na[Mn^IIIHBET]]
overall second-order rate constant of reduction by glutathione [4]: (3.8±0.3)×10^−1 M^−1s^−1

r1 (relaxivity) [1]: 3.11 mM⁻¹ s⁻¹
Half-cell potential [2]: 344 mV
Compound: COc1ccc([O-])c(CN(CCN(CC(=O)[O-])CC(=O)[O-])CC(=O)[O-])c1.[Mn+2].[Na+].[Na+] [Compound 9, Na2[Mn^IIHBET-OMe]]

r1 (relaxivity) [1]: 2.28 mM⁻¹ s⁻¹
Compound: O=C([O-])CN(CCN(CC(=O)[O-])Cc1cc([N+](=O)[O-])ccc1[O-])CC(=O)[O-].[Mn+2].[Na+].[Na+] [Compound 13, Na2[Mn^IIHBET-NO2]]

r1 (relaxivity) [1]: 0.34 mM⁻¹ s⁻¹
Half-cell potential [2]: 476 mV
Compound: O=C([O-])CN(CCN(CC(=O)[O-])Cc1cc([N+](=O)[O-])ccc1[O-])CC(=O)[O-].[Mn+3].[Na+] [Compound 14, Na[Mn^IIIHBET-NO2]]

r1 (relaxivity) [1]: 1.56 mM⁻¹ s⁻¹
Half-cell potential [2]: 365 mV
Compound: O=C([O-])CN(CC(=O)[O-])C1CCCCC1N(CC(=O)[O-])Cc1ccccc1[O-].[Mn+3].[Na+] (stereo not shown) [Compound 21, Na[Mn^IIIcycHBET]]

r1 (relaxivity) [1]: 2.30 mM⁻¹ s⁻¹
Compound: O=C([O-])CN(CC(=O)[O-])C1CCCCC1N(CC(=O)[O-])Cc1cc([N+](=O)[O-])ccc1[O-].[Mn+2].[Na+].[Na+] (stereo not shown) [Compound 30, Na2[Mn^IIcycHBET-NO2)]]

Half-cell potential [2]: 488 mV
Compound: O=C([O-])CN(CC(=O)[O-])C1CCCCC1N(CC(=O)[O-])Cc1cc([N+](=O)[O-])ccc1[O-].[Mn+3].[Na+] (stereo not shown) [Compound 31, Na[Mn^IIIcycHBET-NO2]]

half-cell potential (Mn^II/Mn^III) ([2]; TRIS buffer pH 7.4, vs. K4Fe(CN)6/K3Fe(CN)6): 0.016 V
Compound: O=C([O-])CN(CCN(CC(=O)[O-])Cc1ccccc1[O-])Cc1ccccc1[O-].[Mn+3] [Mn^III-HBED, reference compound]

Relaxivity r1 (per Mn) ([5]; 0.47T): 9.07 mM⁻¹ s⁻¹
Relaxivity r1 per molecule ([5]; 0.47T): 54.4 mM⁻¹ s⁻¹
Relaxivity r1 (per Mn) ([5]; 1.4T): 9.28 mM⁻¹ s⁻¹
Relaxivity r1 per molecule ([5]; 1.4T): 55.7 mM⁻¹ s⁻¹
Relaxivity r1 (per Mn) ([5]; 4.7T): 6.54 mM⁻¹ s⁻¹
Relaxivity r1 per molecule ([5]; 4.7T): 39.2 mM⁻¹ s⁻¹
Relaxivity r1 (per Mn) ([5]; 9.4T): 4.94 mM⁻¹ s⁻¹
Relaxivity r1 per molecule ([5]; 9.4T): 29.6 mM⁻¹ s⁻¹
Relaxivity r1 (per Mn) ([5]; 11.7T): 3.57 mM⁻¹ s⁻¹
Relaxivity r1 per molecule ([5]; 11.7T): 21.4 mM⁻¹ s⁻¹
Compound: Mn6[N3P3-(TyOH-EDTA)6] [(XI)]

Relaxivity r1 (per Mn) ([5]; 0.47T): 3.60 mM⁻¹ s⁻¹
Relaxivity r1 (per Mn) ([5]; 1.4T): 2.80 mM⁻¹ s⁻¹
Relaxivity r1 (per Mn) ([5]; 9.4T): 3.65 mM⁻¹ s⁻¹
Relaxivity r1 (per Mn) ([5]; 11.7T): 3.05 mM⁻¹ s⁻¹
Compound: Na[Mn(TyOH-EDTA)] [(XII)]

Relaxivity r1 ([1]; 1.41T, 37° C., pH 7.4 Tris buffer): 2.50 mM⁻¹ s⁻¹
Compound: [Mn(CyP3A)] [(IX)]
